Assays:
[1] = biological target: T1, human Kv7.2+3 (Homo sapiens, UniProt O43525+O43526); assay: patch-clamp, HEK293 cell lines stably expressing human Kv7.2+3 channels; type: cell-based; design: expressed in transfected cells; conditions: −30 mV, 20 ms, baseline current defined as 100%
From the text: The effect obtained by these channel activators is described as a percentage increase in baseline current at a given concentration. The baseline current is defined as 100%, and an increase in current is expressed relative to this, i.e. an increase from 1 nA to 1.2 nA is reported as 120%.

[2] = biological target: T1, human Kv7.2+3; assay: FLIPR-based thallium influx characterization of Kv7.2+3 modulators; type: cell-based; design: expressed in transfected cells; host or cells: HEK293; conditions: for EC50: HEK293 cells over-expressing human Kv7.2+3, Tl+ influx, relative to retigabine control responses; for Efficacy: maximal response relative to the reference (retigabine) response
Experimental: This experiment determines the ability of a test compound to modulate the activity of Kv7.2+3 channels heterologously expressed in human HEK293 cells. The ability is determined relative to retigabine. The activity is determined using a standard thallium (I) sensitive assay, e.g. using a fluorometric method in a Fluorescent Image Plate Reader (FLIPR) as described below in more detail.
Full concentration/response curves are generated and EC50 values are calculated based on max values. EC50 values (Effective Concentration) represent the concentration of the test substance, at which 50% of the channel activity is obtained when compared to retigabine control responses. Maximal response determined relative to the reference (retigabine) response is calculated.
Human HEK293 cells over-expressing human Kv7.2+3 are grown in culture medium (DMEM supplemented with 10% foetal bovine serum), in polystyrene culture flasks ([…]) in a humidified atmosphere of 5% CO2 in air, at 37° C. Cell confluence should be 80-90% on day of plating. Cells are rinsed with 4 ml of PBS (phosphate buffered saline) and incubated 2 min with 1 ml of Trypsin-EDTA. After addition of 25 ml of culture medium cells are re-suspended by trituration with a 25 ml pipette.
The cells are seeded at a density of ˜3×10^6 cells/ml (25 μl/well) in black-walled, clear bottom, 384-well plates pre-treated with 0.01 g/I poly-D-lysin (20 μl/well for 30 min). Plated cells were allowed to proliferate for 24 h before loading with dye.
BTC-AM ([…], Invitrogen) is added 25.5 μl DMSO. The BTC-AM stock solution (2 mM) is diluted to a final concentration of 2 μM in Cl^− free assay buffer (in mM: 140 Na^+-gluconate, 2.5 K^+-gluconate, 6 Ca2^+-gluconate, 1 Mg^2+ gluconate, 5 glucose, 10 HEPES, pH 7.3) containing 2 μM ouabain, 2 mM amaranth and 1 mM tartrazine. […]
After the loading period, the TI^+-sensitive BTC fluorescence signal is measured over time using a FLIPR.
• Temperature: Room temp. • First addition: 12 μl test or control compound after 15 sec at a rate of 30 μl/sec and starting height of 20 μl • Second addition: 12 μl stimulus buffer (CI^− free assay buffer supplemented with 1 mM TI2SO4, 5 mM K2SO4 as well as the quenchers amaranth (2 mM) and tartrazine (1 mM)) is added after an additional 3 minutes at a rate of 30 μl/sec and starting height of 30 μl • Reading intervals: First sequence—3 sec×5, 2 sec×24 and 5 sec×25 Second sequence—1 sec×5, 2 sec×24 and 5 sec×36 Addition plates (compound plate and stimulus plate) are placed in positions 2 and 3, respectively. […] Fluorescence obtained after stimulation is corrected for the mean basal fluorescence (in Cl^− free assay buffer). […]

Row | IK (%) ([1]; conc. 0.03 μM) | IK (%) ([1]; conc. 0.3 μM) | EC50 [2] | Efficacy [2] | SMILES
1 | 177 (n = 2) % | 249% | 0.034 µM | 82% | Cc1ccoc1C(=O)Nc1c(C)cc(N2CCCOCC2)nc1C(C)C [Compound 1.1, 3-Methyl-furan-2-carboxylic acid(2-isopropyl-4-methyl-6-[1,4]oxazepan-4-yl-pyridin-3-yl)-amide]
2 | – | 180% | 4.1 µM | 102% | Cc1ccoc1C(=O)Nc1c(C)cc(N2CCCOCC2)nc1C [Compound 1.2, 3-Methyl-furan-2-carboxylic acid(2,4-dimethyl-6-[1,4]oxazepan-4-yl-pyridin-3-yl)-amide]
